Data taken from publication PMC3705398 (Marine Drugs, 2013).
Entries after “also recorded” stand apart in the source; their conditions may differ. Where two headings read alike, the source gives them in different places. Where a SMILES comes first, the peptide text is derived from it.

Key:
adult male ICR mice [1] = conditions: mouse, in vivo
[2] = target: T1, CaV2.2 (N-type) calcium channels in rat superior cervical ganglion (SCG) neurons (Rattus norvegicus, UniProt Q02294); test: cell-based; assay type: cell-based, rat (Wistar)
T1 construct: SCG neurons are the most used native preparation to assess CaV2.2 (N-type) channel function; endogenous in cells
T1 sequence (Q02294 whole entry): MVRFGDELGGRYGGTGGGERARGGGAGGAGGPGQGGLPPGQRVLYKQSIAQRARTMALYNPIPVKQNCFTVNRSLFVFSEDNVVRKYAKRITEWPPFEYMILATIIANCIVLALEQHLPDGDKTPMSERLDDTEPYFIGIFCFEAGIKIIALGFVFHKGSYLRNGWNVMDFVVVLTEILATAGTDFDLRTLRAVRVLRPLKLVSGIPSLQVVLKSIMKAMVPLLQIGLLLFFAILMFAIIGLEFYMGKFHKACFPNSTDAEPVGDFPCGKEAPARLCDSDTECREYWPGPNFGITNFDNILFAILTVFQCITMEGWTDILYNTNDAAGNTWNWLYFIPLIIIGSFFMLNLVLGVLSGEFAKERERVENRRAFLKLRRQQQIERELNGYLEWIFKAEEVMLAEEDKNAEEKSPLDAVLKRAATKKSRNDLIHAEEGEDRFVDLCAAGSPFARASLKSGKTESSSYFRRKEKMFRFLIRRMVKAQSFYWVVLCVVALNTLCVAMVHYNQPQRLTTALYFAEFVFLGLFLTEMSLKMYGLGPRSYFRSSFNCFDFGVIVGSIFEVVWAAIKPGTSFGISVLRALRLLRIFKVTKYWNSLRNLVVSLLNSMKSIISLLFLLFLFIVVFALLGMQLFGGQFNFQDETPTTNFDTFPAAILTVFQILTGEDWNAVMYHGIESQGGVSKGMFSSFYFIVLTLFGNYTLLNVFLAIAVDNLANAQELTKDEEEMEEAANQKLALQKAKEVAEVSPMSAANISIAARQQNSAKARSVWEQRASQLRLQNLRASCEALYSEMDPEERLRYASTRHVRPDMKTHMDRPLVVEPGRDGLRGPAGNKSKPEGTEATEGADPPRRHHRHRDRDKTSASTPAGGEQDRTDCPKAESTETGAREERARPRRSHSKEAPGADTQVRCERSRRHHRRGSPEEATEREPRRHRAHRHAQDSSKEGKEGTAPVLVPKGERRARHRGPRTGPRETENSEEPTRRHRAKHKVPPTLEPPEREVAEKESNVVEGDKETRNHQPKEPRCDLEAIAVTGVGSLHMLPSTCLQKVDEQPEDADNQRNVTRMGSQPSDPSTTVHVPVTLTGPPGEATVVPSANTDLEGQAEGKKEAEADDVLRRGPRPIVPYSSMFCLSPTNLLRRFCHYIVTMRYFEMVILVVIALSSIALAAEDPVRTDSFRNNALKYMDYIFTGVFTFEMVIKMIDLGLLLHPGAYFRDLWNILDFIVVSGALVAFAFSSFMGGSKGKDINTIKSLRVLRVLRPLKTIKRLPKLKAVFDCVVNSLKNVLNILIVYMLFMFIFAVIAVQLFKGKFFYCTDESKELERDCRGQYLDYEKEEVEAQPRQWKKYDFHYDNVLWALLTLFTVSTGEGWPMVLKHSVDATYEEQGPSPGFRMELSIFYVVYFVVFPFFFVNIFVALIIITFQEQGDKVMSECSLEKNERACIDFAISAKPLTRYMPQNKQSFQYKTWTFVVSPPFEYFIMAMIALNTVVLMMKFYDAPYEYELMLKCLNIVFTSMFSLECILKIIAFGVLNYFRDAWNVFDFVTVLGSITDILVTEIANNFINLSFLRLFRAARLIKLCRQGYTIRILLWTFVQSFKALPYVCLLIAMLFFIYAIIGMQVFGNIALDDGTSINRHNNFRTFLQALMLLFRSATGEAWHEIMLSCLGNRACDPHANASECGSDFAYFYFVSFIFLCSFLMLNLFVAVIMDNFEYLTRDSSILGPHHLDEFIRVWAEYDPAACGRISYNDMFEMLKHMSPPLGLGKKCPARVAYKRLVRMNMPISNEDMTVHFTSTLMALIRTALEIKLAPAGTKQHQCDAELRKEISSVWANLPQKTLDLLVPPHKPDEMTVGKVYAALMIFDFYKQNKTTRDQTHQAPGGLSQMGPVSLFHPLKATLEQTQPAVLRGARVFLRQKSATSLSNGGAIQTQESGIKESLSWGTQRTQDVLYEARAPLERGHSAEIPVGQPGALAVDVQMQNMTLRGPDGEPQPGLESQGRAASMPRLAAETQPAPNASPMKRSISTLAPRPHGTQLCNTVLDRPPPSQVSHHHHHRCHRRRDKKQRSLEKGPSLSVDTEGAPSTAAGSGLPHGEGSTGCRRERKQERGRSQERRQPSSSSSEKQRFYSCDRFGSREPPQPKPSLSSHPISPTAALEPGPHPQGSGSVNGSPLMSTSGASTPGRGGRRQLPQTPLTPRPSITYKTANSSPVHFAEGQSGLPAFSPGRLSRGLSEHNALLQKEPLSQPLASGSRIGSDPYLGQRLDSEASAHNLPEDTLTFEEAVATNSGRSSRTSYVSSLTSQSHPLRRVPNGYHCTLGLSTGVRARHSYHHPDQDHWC
T1 sequence (P54290 25-1091 partner): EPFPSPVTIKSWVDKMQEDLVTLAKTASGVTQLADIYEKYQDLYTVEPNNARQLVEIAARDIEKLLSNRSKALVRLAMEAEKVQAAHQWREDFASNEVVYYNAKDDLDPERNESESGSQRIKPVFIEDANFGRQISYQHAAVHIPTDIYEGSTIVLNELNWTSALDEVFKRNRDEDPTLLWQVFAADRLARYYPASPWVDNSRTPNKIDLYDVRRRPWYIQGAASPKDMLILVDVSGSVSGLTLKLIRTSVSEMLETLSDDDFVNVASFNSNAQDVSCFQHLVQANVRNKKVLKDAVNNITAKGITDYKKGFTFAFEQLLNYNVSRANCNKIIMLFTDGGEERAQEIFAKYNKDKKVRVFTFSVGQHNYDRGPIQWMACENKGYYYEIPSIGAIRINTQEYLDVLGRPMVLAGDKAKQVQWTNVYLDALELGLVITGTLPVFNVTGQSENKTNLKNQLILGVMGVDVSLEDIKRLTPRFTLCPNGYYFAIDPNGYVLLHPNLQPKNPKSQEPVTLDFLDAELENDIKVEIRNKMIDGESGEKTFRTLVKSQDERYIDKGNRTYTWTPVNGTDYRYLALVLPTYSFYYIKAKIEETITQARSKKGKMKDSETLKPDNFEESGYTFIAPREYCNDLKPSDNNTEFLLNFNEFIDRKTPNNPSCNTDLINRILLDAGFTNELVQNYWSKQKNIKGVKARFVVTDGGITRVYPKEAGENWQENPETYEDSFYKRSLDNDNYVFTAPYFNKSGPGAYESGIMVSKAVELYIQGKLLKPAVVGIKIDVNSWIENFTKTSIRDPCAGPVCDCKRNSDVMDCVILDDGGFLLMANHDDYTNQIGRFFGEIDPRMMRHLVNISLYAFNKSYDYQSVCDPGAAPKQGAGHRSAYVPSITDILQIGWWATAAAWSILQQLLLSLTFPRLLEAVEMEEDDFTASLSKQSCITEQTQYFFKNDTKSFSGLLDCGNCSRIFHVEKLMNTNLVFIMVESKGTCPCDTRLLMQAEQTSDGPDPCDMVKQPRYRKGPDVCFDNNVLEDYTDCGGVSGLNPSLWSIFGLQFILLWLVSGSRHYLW
T1 sequence (P54287 whole entry partner): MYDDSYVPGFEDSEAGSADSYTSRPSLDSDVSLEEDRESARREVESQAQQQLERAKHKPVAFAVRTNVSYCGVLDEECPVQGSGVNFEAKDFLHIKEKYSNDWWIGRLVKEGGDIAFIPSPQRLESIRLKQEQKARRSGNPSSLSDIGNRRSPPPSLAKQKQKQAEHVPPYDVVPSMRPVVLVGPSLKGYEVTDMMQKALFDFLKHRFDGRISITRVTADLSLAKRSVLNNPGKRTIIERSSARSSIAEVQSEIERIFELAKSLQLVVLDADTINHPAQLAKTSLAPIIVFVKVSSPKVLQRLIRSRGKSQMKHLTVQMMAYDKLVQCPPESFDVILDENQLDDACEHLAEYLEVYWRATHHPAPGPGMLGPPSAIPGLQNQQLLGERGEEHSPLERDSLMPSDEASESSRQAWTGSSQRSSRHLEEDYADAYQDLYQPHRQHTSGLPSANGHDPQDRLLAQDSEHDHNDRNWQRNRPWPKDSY

adult male ICR mice [3] = conditions: mouse, in vivo; remark: listed apart in the source
[4] = read-out: inhibition of calcium current

CSCC[C@H](NC(=O)[C@H](CC(C)C)NC(=O)[C@H](CCCNC(=N)N)NC(=O)[C@H](CO)NC(=O)CNC(=O)[C@H](CCCCN)NC(=O)[C@H](CO)NC(=O)[C@H](CC(C)C)NC(=O)[C@H](CS)NC(=O)[C@H](Cc1ccccc1)NC(=O)[C@H](CCC(=O)O)NC(=O)[C@H](CCCCN)NC(=O)[C@@H](NC(=O)[C@H](CO)NC(=O)[C@H](CS)NC(=O)[C@H](CO)NC(=O)[C@H](CO)NC(=O)[C@H](CS)NC(=O)[C@H](CO)NC(=O)[C@H](CCC(N)=O)NC(=O)CNC(=O)[C@H](CCCCN)NC(=O)[C@@H](N)CS)[C@@H](C)O)C(=O)N[C@@H](Cc1ccc(O)cc1)C(=O)N[C@@H](CC(=O)O)C(=O)N[C@@H](CS)C(=O)N[C@@H](CS)C(=O)N[C@H](C(=O)NCC(=O)N[C@@H](CO)C(=O)N[C@@H](CS)C(=O)N[C@@H](CS)C(=O)NCC(=O)N[C@H](C(=O)N[C@@H](CCCCN)C(=O)N[C@H](C(=O)N[C@@H](C)C(=O)NCC(=O)N[C@H](C(=O)N[C@H](C(=O)O)[C@@H](C)O)C(C)C)[C@@H](C)O)C(C)C)[C@@H](C)O [RsXXIVA] (H-CKGQSCSSCSTKEFCLSKGSRLMYDCCTGSCCGVKTAGVT-OH)
analgesic effect in hot-plate test (in words) compared with control (PBS) (adult male ICR mice [1]): analgesic effect in acute thermal pain at 30 and 45 min post-injection; also recorded: significantly better than the control group (p < 0.05)
CaV2.2 current before restoration (under toxin) [2]: −442.9 ± 213.8 pA
CaV2.2 current restored after toxin washout [2]: −798.2 ± 313.4 pA
Hill coefficient of dose-response for CaV2.2 current inhibition [2]: 0.94
affinity for CaV2.2 (in words) [2]: low affinity for CaV2.2
reversibility of CaV2.2 current inhibition after washing [2]: partially reversed after washing; also recorded: partially reversible; also recorded: the inhibition of the CaV2.2 channel current occurred reversibly
time to inhibit CaV2.2 current [2]: less than 4 s
inhibition at 0.03 µM [2, 4]: 1.6 ± 0.1%
inhibition at 0.3 µM [2, 4]: 12 ± 0.5%
inhibition at 3 µM [2, 4]: 58.1 ± 2.6%
inhibition at 24 µM [2, 4]: 97.9 ± 0.5%
inhibition at 3 µM ([2]; read-out: percentage of inhibition compared to the block with 100 μM Cd2+): 58.1%
hind paw licking in formalin test (in words) compared with control group (adult male ICR mice [3]): significantly reduced the hind paw licking during both phase 1 (Figure 6A) and phase 2 (Figure 6B)
